Results on six compounds are retold here after patent publication US20240139185A1, “COMPOUNDS THAT PARTICIPATE IN COOPERATIVE BINDING AND USES THEREOF” (Revolution Medicines, Inc., priority 2018, published 2024).

pEC50, pIC50, pKd: −log10 of the molar value. Read-outs that look alike come from different tables or passages of the source.

A word on the pEC50: it is the EC50 on a negative log10 scale, so that one unit is a factor of ten. Low readings indicate a high EC50, high ones a low EC50.

Test [1] has as its target cyclophilin A (CYPA) (Homo sapiens, UniProt P62937). Nature of the test: CYPA-compound binary complex formation by SPR. The conditions noted are these: read-out: CYPA Binding Affinity. The method, boiled down: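 Steady-state fit of SPR responses gave binding affinity. Analyte series: 50 μM downward, 2-fold, 10 points, running buffer HBS-P+ (0.05% Tween20, pH7.4, 2% DMSO), 60 s on/60 s off. Surface: biotinylated CypA-Avi captured at 4 μg/ml against a reference cell, regenerated with NaOH/guanidine.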
In general terms: Surface plasmon resonance follows binding to a sensor surface in real time, without labels.

The target in test [2] is T1, BRAF-GTP-KRAS-G12C complex (Homo sapiens, UniProt P01116+P62937, G12C).
T1 construct: 50 nM of His6-KRas G12C-GTP (1-169); 500 nM of tagless CypA (1-165)
Briefly: KRAS-BRAF complex disruption through competition with CYPA-compound by TR-FRET. As to conditions: biochemical BRAF-KRAS G12C-GTP disruption assay EC50, with CYPA. In a few lines: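 Compound-driven loss of KRAS–BRAF RBD TR-FRET signal, Eu-anti-His/APC-anti-GST pair (10/50 nM, 1.5 h), following a 3 h room-temperature preincubation of 50 nM His6-KRAS G12C-GTP and 500 nM CypA in 25 mM Hepes pH 7.3 buffer. EC50 by 4-parameter fit. Variants used wild-type KRAS in place of G12C or no CypA.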
On the technique in general: TR-FRET usually uses a lanthanide donor and a delayed reading to cut background.

For test [3], the system named is pERK in H358 cells. Briefly: pERK inhibition in H358 cells. The class given is cell-based, human. As to conditions: read-out: Cellular pERK inhibition. In a few lines:
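Human lung cancer H358 cells in RPMI/10% FBS were exposed to compound or DMSO for 4 h. Fixed and permeabilized cells were stained overnight at 4 C with anti-phospho-ERK1/2 (Thr202/Tyr204). Near-infrared imaging read the pERK signal at 800 nm, with DRAQ5 at 700 nm.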

Take `CC(C)[C@@H](C(=O)N[C@H]1Cc2cc(O)cc(c2)-c2ccc3c(CCC#N)cn(c3c2)C[C@H](C)COC(=O)[C@@H]2CCCN(N2)C1=O)N(C)C(=O)C1CN(C(=O)CCl)C1` [Compound 76]: the pKd in test [1] is at least 5.30. In test [2], this compound gave a negative logarithm of the EC50 (pEC50) of at least 6.30. The pIC50 in test [3] (4 hours treatment) was at least 6.00.
Turning to `CC(C)[C@@H](C(=O)N[C@H]1Cc2cc(O)cc(c2)-c2ccc3c(Cl)nn(c3c2)CC(C)(C)COC(=O)[C@@H]2CCCN(N2)C1=O)N(C)C(=O)C1CN(C(=O)CCl)C1` [Compound 201], in test [1], the pKd was under 4.82. This compound also had a pEC50 in test [2] of at least 6.30. Besides, the pIC50 in test [3] (4 hours treatment) was at least 6.00.
For `CC[C@@H](C(=O)N[C@H]1Cc2cc(O)cc(c2)-c2ccc3c(C(C)(C)C#N)cn(c3c2)CC(C)(C)COC(=O)[C@@H]2CCCN(N2)C1=O)N(C)C(=O)C1CN(C(=O)CCl)C1` [Compound 56], the pKd in test [1] is under 4.82. This compound showed a pEC50 in test [2] of at least 6.30. The pIC50 in test [3] (4 hours treatment) was under 5.00.
Consider `C=CC(=O)N1CCN([C@H](C(=O)N[C@H]2Cc3cc(O)cc(c3)-c3ccc4nc(C)n(c4c3)CC(C)(C)COC(=O)[C@@H]3CCCN(N3)C2=O)C(C)C)C1=O` [Compound 1, (2S)-2-(3-acryloyl-2-oxoimidazolidin-1-yl)-N-((6^3S,4S)-2^5-hydroxy-1^2,10,10-trimethyl-5,7-dioxo-6^1,6^2,6^3,6^4,6^5,6^6-hexahydro-1^1H-8-oxa-1(6,1)-benzo[d]imidazola-6(1,3)-pyridazina-2(1,3)-benzenacycloundecaphane-4-yl)-3-methylbutanamide], for which the pKd in test [1] was 4.82 to 5.30. Further, in test [2], the pEC50 was at least 6.30. Moreover, the pIC50 in test [3] (Homo sapiens, NCI-H358, 4 hours treatment) was under 5.00.
With `CC#CC(=O)N1CC(C(=O)N(C)[C@H](C(=O)N[C@H]2Cc3cc(O)cc(c3)-c3ccc4c(c3)n(c(=O)n4C)CC(C)(C)COC(=O)[C@@H]3CCCN(N3)C2=O)C(C)C)C1` [Compound 190], in test [1], the pKd is at least 5.30. Besides, the pEC50 in test [2] is 5.30 to 6.30. The pIC50 in test [3] (4 hours treatment) is under 5.00.
The like results for `C=CC(=O)N1CCN([C@H](C(=O)N[C@H]2Cc3cc(O)cc(c3)-c3ccc4c(Cl)nn(c4c3)CC(C)(C)COC(=O)[C@@H]3CCCN(N3)C2=O)C(C)C)C1=O` [Compound 200] were, in that order, under 4.82, at least 6.30 and under 5.00.
